From patent publication US20210255193A1, “LYSINE REACTIVE PROBES AND USES THEREOF” (The Scripps Research Institute, priority 2017, published 2021)

Columns and labels:
Assay in all cases: direct labeling of recombinantly expressed proteins by gel-based ABPP (WT vs lysine mutant)
Assay type in all cases: binding
CARM1 = molecular target: T1, CARM1 (Mus musculus, UniProt Q9WVG6); conditions: CARM1 K241, KR mutant; 10 μM probe, 1 h
T1 construct: FLAG; expressed in transfected cells; host or cells: HEK 293T
T1 sequence (Q9WVG6 1-608): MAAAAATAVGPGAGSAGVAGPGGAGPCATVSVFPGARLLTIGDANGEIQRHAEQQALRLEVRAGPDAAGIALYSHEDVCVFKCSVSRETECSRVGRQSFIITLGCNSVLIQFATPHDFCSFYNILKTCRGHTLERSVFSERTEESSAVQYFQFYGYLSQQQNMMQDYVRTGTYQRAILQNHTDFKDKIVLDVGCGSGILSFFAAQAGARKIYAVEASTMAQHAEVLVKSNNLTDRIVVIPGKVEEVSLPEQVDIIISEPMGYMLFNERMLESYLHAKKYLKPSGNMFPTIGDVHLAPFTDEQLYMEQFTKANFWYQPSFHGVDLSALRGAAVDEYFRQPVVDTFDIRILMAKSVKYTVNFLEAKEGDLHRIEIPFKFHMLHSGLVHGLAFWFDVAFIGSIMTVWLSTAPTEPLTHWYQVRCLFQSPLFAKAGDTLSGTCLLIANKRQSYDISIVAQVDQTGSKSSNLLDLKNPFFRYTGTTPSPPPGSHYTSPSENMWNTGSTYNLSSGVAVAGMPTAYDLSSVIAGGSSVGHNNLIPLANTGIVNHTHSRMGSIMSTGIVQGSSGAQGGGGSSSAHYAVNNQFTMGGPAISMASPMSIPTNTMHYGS

PNPO = molecular target: T2, PNPO (Homo sapiens, UniProt Q9NVS9); conditions: PNPO K100, KR mutant; 10 μM probe, 1 h
T2 construct: Flag; expressed in transfected cells; host or cells: HEK 293T, transient transfection, soluble lysate
T2 sequence (Q9NVS9 1-261): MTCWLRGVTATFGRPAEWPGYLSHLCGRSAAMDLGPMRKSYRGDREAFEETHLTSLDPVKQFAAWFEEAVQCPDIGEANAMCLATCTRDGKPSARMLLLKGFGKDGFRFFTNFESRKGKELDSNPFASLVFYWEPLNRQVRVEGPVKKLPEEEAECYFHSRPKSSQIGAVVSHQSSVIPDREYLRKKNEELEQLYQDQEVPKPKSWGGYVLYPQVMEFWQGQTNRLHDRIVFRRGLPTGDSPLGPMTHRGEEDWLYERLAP

TPMT = molecular target: T3, TPMT (Homo sapiens, UniProt P51580); conditions: TPMT K32, KR mutant; 10 μM probe, 1 h
T3 construct: expressed in transfected cells; host or cells: HEK 293T
T3 sequence (P51580 1-245): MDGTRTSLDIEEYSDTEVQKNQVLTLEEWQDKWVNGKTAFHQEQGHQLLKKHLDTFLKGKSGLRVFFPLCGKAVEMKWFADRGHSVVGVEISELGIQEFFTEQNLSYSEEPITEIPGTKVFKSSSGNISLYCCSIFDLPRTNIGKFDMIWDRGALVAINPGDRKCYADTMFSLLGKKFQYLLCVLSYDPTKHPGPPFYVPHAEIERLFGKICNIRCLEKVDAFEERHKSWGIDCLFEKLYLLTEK

ADK = molecular target: T4, ADK (Homo sapiens, UniProt P55263); conditions: ADK K88, KR mutant; 10 μM probe, 1 h
T4 construct: expressed in transfected cells; host or cells: HEK 293T
T4 sequence (P55263 whole entry): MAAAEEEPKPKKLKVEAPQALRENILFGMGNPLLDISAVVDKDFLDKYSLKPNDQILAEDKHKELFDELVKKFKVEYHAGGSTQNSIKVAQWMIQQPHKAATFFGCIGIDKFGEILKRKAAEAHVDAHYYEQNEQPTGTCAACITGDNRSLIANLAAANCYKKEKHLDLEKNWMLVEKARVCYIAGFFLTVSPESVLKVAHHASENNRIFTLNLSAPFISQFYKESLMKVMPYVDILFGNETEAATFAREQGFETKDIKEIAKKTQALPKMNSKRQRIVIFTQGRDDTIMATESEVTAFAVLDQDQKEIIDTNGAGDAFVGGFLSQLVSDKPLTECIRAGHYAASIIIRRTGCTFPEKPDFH

| SMILES | labeling of WT vs mutant protein by probe (CARM1) | labeling of WT vs mutant protein by probe (PNPO) | labeling of WT vs mutant protein by probe (TPMT) | labeling of WT vs mutant protein by probe (ADK) |
| --- | --- | --- | --- | --- |
| C#CCCC(=O)Oc1c(F)c(F)c(F)c(F)c1F [probe 6, Pentafluorophenyl 4-pentynoate] | ND (the WT did not label more than the mutant (<2x difference quantified)) | PD (the WT labeled more than the mutant (>2x difference quantified)) | ND (the WT did not label more than the mutant (<2x difference quantified)) | – |
| C#Cc1ccc(C(=O)Oc2c(F)c(F)c(F)c(F)c2F)cc1 [probe 13, Pentafluorophenyl 4-ethynylbenzoate] | ND (the WT did not label more than the mutant (<2x difference quantified)) | ND (the WT did not label more than the mutant (<2x difference quantified)) | ND (the WT did not label more than the mutant (<2x difference quantified)) | HD (the WT labeled more than the mutant (>4x difference quantified)) |
| Cc1cc(C)n2c1C=C1C=CC(CCC(=O)Oc3c(F)c(F)c(S(=O)(=O)[O-])c(F)c3F)=[N+]1[B-]2(F)F.[Na+] [probe 18, reference compound] | PD (the WT labeled more than the mutant (>2x difference quantified)) | PD (the WT labeled more than the mutant (>2x difference quantified)) | HD (the WT labeled more than the mutant (>4x difference quantified)) | PD (the WT labeled more than the mutant (>2x difference quantified)) |
| C#Cc1ccc(C(=O)Oc2ccccc2[N+](=O)[O-])cc1 [probe 10, 2-Nitrophenyl 4-ethynylbenzoate] | – | – | – | HD (the WT labeled more than the mutant (>4x difference quantified)) |
| C#Cc1ccc(C(=O)Oc2c(F)c(F)cc(F)c2F)cc1 [probe 12, 2,3,5,6-Tetrafluorophenyl 4-ethynylbenzoate] | ND (the WT did not label more than the mutant (<2x difference quantified)) | PD (the WT labeled more than the mutant (>2x difference quantified)) | ND (the WT did not label more than the mutant (<2x difference quantified)) | HD (the WT labeled more than the mutant (>4x difference quantified)) |
| C#CCCC(=O)Oc1c(F)c(F)c(S(=O)(=O)[O-])c(F)c1F.[Na+] [probe 1, reference compound] | HD (the WT labeled more than the mutant (>4x difference quantified)) | HD (the WT labeled more than the mutant (>4x difference quantified)) | HD (the WT labeled more than the mutant (>4x difference quantified)) | PD (the WT labeled more than the mutant (>2x difference quantified)) |
